Experimental data as given in patent publication US20100305068A1, “COMPOUNDS AND METHODS FOR MODULATING PROTEIN TRAFFICKING” (priority 2006, published 2010).
Read-outs that look alike come from different tables or passages of the source.

System: pdr5 ypt1^ts cells
Test: microbe, parasite or virus in culture
Assay type: cell-based, yeast
Conditions: for minimal effective concentration / optical density, ypt1-ts, 0.39 / optical density, ypt1-ts, 0.78 / optical density, ypt1-ts, 1.56 / optical density, ypt1-ts, 3.13 / optical density, ypt1-ts, 6.25 / optical density, ypt1-ts, 12.5 / optical density, ypt1-ts, 25: Table 2; for minimal effective concentration: lowest concentration tested giving growth above the 0 μM background, read-out: ypt1-ts MRC (minimal rescue concentration); for optical density, ypt1-ts, 0.39: 0.39 μM compound; for optical density, ypt1-ts, 0.39 / optical density, ypt1-ts, 0.78 / optical density, ypt1-ts, 1.56 / optical density, ypt1-ts, 3.13 / optical density, ypt1-ts, 6.25 / optical density, ypt1-ts, 12.5 / optical density, ypt1-ts, 25: background (0 μM) 0.058; for optical density, ypt1-ts, 0.78: 0.78 μM compound; for optical density, ypt1-ts, 1.56: 1.56 μM compound; for optical density, ypt1-ts, 3.13: 3.13 μM compound; for optical density, ypt1-ts, 6.25: 6.25 μM compound; for optical density, ypt1-ts, 12.5: 12.5 μM compound; for optical density, ypt1-ts, 25: 25 μM compound
Summary of the method: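 Whole-cell yeast growth-rescue screen: pdr5 ypt1^ts cells (efflux pump inactivated), growth-arrested at 37° C., cultured with compounds at 37° C. Restoration of growth read by optical density.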

[1] = Saccharomyces cerevisiae, 37° C.
[2] = Table 3, 3.13 uM compound, 37° C., background (0 uM) 0.077
[3] = Table 3, 12.5 uM compound, 37° C., background (0 uM) 0.077
[4] = Table 3, 50 uM compound, 37° C., background (0 uM) 0.077

Row | Compound | minimal effective concentration [1] [µM] | optical density, ypt1-ts, 0.39 (37° C.) | optical density, ypt1-ts, 0.78 (37° C.) | optical density, ypt1-ts, 1.56 (37° C.) | optical density, ypt1-ts, 3.13 (37° C.) | optical density, ypt1-ts, 6.25 (37° C.) | optical density, ypt1-ts, 12.5 (37° C.) | optical density, ypt1-ts, 25 (37° C.) | optical density, 3.13 uM [2] | optical density, 12.5 uM [3] | optical density, 50 uM [4] | minimal effective concentration (37° C.) [µM] | optical density, 3.13 uM | optical density, 12.5 uM | optical density, 50 uM
1 | CC(=O)[C@H]1CC[C@H]2[C@@H]3CCC4=CC(=O)CC[C@]4(C)[C@H]3CC[C@]12C [PROGESTERONE, reference compound] | 12.5 | 0.089 | 0.083 | 0.091 | 0.098 | 0.12 | 0.15 | 0.316 |  |  |  |  |  |  | 
2 | CC(C)N(C(=O)CCl)c1ccccc1 [PROPACHLOR] | 6.25 | 0.101 | 0.085 | 0.098 | 0.121 | 0.141 | 0.177 | 0.184 |  |  |  |  |  |  | 
3 | CCC(=O)Nc1ccc(Cl)c(Cl)c1 [PROPANIL] | 12.5 | 0.084 | 0.072 | 0.076 | 0.097 | 0.108 | 0.217 | 0.564 |  |  |  |  |  |  | 
4 | CNC(=O)Oc1ccccc1OC(C)C [PROPOXUR] |  |  |  |  |  |  |  |  | 0.194 | 0.289 | 0.231 |  |  |  | 
5 | C/C=C(\C)C(=O)O[C@@H]1c2c(ccc3ccc(=O)oc23)OC(C)(C)[C@@H]1OC(C)=O [PTERYXIN] | 6.25 | 0.103 | 0.078 | 0.096 | 0.124 | 0.134 | 0.26 | 0.479 |  |  |  |  |  |  | 
6 | COc1ccc(/C=C/c2cc(O)cc(O)c2)cc1 [RESVERA- TROL 4′- METHYL ETHER] |  |  |  |  |  |  |  |  | 0.08 | 0.103 | 0.331 |  |  |  | 
7 | C[n+]1cc2c3c(ccc2c2ccc4cc5c(cc4c21)OCO5)OCO3.O=S(=O)([O-])O [SANGUINARINE SULFATE] | 12.5 | 0.092 | 0.076 | 0.077 | 0.089 | 0.111 | 0.165 | 0.345 |  |  |  |  |  |  | 
8 | CC1=CC(=O)[C@H]2C(C)(C)CCC[C@]2(C)[C@@]1(O)CCc1ccoc1 [SOLIDAGENONE] | 6.25 | 0.092 | 0.077 | 0.086 | 0.11 | 0.141 | 0.439 | 0.62 |  |  |  |  |  |  | 
9 | CCCCC1(COC(=O)CCC(=O)O)C(=O)N(c2ccccc2)N(c2ccccc2)C1=O [SUXIBUZONE, reference compound] | 3.13 | 0.101 | 0.078 | 0.093 | 0.127 | 0.173 | 0.329 | 0.536 |  |  |  |  |  |  | 
10 | COC(=O)C(O)[C@H]1C(C)(C)[C@@H](OC(C)=O)[C@@H]2CC3=C4CC(=O)O[C@@H](c5ccoc5)[C@]4(C)CCC3[C@]1(C)C2=O (stereo partly drawn) [SWIETENOLIDE- 3-ACETATE] |  |  |  |  |  |  |  |  | 0.425 | 0.629 | 0.619 |  |  |  | 
11 | C=CCC1(C(C)CCC)C(=O)N=C([S-])NC1=O.[Na+] (stereo not drawn) [THIAMYLAL SODIUM, reference compound] | 12.5 | 0.089 | 0.071 | 0.089 | 0.101 | 0.103 | 0.162 | 0.209 |  |  |  |  |  |  | 
12 | CC1(C)C(=O)C=C[C@]2(C)C3CC[C@@]4(C)[C@H](c5ccoc5)C[C@H]5O[C@]54C3[C@H](O)CC12 (stereo partly drawn) [TRI- CHILENONE] |  |  |  |  |  |  |  |  | 0.119 | 0.283 | 0.462 |  |  |  | 
13 | CC(CCC(=O)O)[C@H]1CCC2C3C(CC[C@@]21C)[C@@]1(C)CC[C@@H](O)C[C@H]1C[C@@H]3O (stereo partly drawn) [URSODIOL, reference compound] |  |  |  |  |  |  |  |  | 0.202 | 0.41 | 0.523 |  |  |  | 
14 | O=c1c2ccccc2oc2ccccc12 [XANTHONE] | 6.25 | 0.096 | 0.072 | 0.093 | 0.109 | 0.152 | 0.445 | 0.598 |  |  |  |  |  |  | 
15 | Nc1nc2ncc(=O)[nH]c2c(=O)[nH]1 [XANTHOP- TERIN] |  |  |  |  |  |  |  |  | 0.101 | 0.23 | 0.073 |  |  |  | 
16 | C=C1C2CC[C@@]3(C)[C@H](c4ccoc4)OC(=O)C[C@]13O[C@H]1CC(=O)C(C)(C)C(CC(=O)OC)C21C (stereo partly drawn) [[…], METHYL ESTER] | 3.13 | 0.119 | 0.087 | 0.107 | 0.21 | 0.53 | 0.56 | 0.577 |  |  |  |  |  |  | 
17 | AKLAVINE HYDROCHLORIDE |  | 0.095 | 0.136 | 0.078 | 0.088 | 0.101 | 0.145 | 0.246 |  |  |  | 12.5 |  |  | 
18 | AVOCATIN A |  |  |  |  |  |  |  |  | 0.351 | 0.06 | 0.036 |  |  |  | 
19 | AVOCATIN B |  |  |  |  |  |  |  |  | 0.451 | 0.032 | 0.032 |  |  |  | 
20 | CHLORO- PHYLLIDE Cu COMPLEX Na SALT |  |  |  |  |  |  |  |  | 0.064 | 0.054 | 0.305 |  |  |  | 
21 | DACTINOMYCIN [reference compound] |  | 0.093 | 0.071 | 0.082 | 0.104 | 0.351 | 0.663 | 0.669 |  |  |  | 6.25 |  |  | 
22 | FUSIDIC ACID [reference compound] |  | 0.095 | 0.081 | 0.084 | 0.107 | 0.137 | 0.296 | 0.52 |  |  |  | 6.25 |  |  | 
23 | NIMESULIDE [reference compound] |  |  |  |  |  |  |  |  |  |  |  |  | 0.098 | 0.147 | 0.539
24 | NIMODIPINE [reference compound] |  | 0.097 | 0.081 | 0.096 | 0.113 |  | 0.178 | 0.27 |  |  |  | 12.5 |  |  | 
